Laboratory results as given in patent US4612366A, “Cyclic hexapeptide somatostatin analogs” (Merck & Co., Inc., priority 1985, dated 1986).

Assays:
portal vein glucagon = experiment: Decrease of portal vein glucagon levels in anesthetized rats, compared to somatostatin; type: in vivo, rat; conditions: multiples or fractions of the effect of somatostatin (= 1); urethane-anesthetized male Sprague-Dawley rats, external jugular vein, portal vein blood after 5 minutes
Description: (§1) Analogs of somatostatin were compared to somatostatin in their ability to decrease the levels of portal vein glucagon and insulin in anesthetized rats. Male Sprague-Dawley rats (Charles River CD) weighing 160-200 g were anestetized with urethane (150 mg/100 g of body weight; Aldrich). Saline or peptides were administered via the external jugular vein. After 5 minutes, the portal vein was exposed, and blood was collected via syringe containing 3 mg of EDTA and placed in chilled tubes containing 100 μl of Trasylol (FBA Pharmaceuticals) for subsequent hormone analysis. Plasma levels of glucagon were determined by the method of Faloona and Unger, Methods of Hormone Radioimmunossay, Jaffe and Behrman (Eds), Academic Press, New York, Vol. II, pp. 257-527 (1976), utilizing glucagon antisera 30K obtained from R. Unger (Dallas, TX). Plasma levels of insulin were determined by a modification of the procedure of Herbert et al., J. Clin. Endocrinol. Metab., 25, 1375-1384 (1965).
(§2) The test results for some of the compounds of this invention are recorded below with the results for somatostatin listed first and given the arbitrary value of 1. The results for the instant compounds are given as multiples or fractions of the effect of somatostatin. The first of the instant compounds listed is the compound prepared in Example 1-5. […]

portal vein insulin = experiment: Decrease of portal vein insulin levels in anesthetized rats, compared to somatostatin; type: in vivo, rat; conditions: multiples or fractions of the effect of somatostatin (= 1); urethane-anesthetized male Sprague-Dawley rats, external jugular vein, portal vein blood after 5 minutes
Description: as §1, §2

SMILES: C[C@H](N)C(=O)NCC(=O)N[C@H]1CSSC[C@@H](C(=O)O)NC(=O)[C@H](CO)NC(=O)[C@H]([C@@H](C)O)NC(=O)[C@H](Cc2ccccc2)NC(=O)[C@H]([C@@H](C)O)NC(=O)[C@H](CCCCN)NC(=O)[C@H](Cc2c[nH]c3ccccc23)NC(=O)[C@H](Cc2ccccc2)NC(=O)[C@H](Cc2ccccc2)NC(=O)[C@H](CC(N)=O)NC(=O)[C@H](CCCCN)NC1=O [Somatostatin]
- Glucagon Inhibition (portal vein glucagon): 1
- Insulin Release Inhibition (portal vein insulin): 1
